Key:
Assay in all cases: Competitive isoTOP-ABPP, cell lysates
Type in all cases: binding
DDX59 C453 (Q5T1V6) = target: T1, DDX59 C453 (Q5T1V6) (Homo sapiens, UniProt Q5T1V6); conditions: for R value (DMSO/fragment) / isoTOP-ABPP ratio, Q5T1V6_C453: 500 μM; for isoTOP-ABPP reactivity profile ratio, Q5T1V6_C453: 500 μm
T1 sequence (Q5T1V6 1-619): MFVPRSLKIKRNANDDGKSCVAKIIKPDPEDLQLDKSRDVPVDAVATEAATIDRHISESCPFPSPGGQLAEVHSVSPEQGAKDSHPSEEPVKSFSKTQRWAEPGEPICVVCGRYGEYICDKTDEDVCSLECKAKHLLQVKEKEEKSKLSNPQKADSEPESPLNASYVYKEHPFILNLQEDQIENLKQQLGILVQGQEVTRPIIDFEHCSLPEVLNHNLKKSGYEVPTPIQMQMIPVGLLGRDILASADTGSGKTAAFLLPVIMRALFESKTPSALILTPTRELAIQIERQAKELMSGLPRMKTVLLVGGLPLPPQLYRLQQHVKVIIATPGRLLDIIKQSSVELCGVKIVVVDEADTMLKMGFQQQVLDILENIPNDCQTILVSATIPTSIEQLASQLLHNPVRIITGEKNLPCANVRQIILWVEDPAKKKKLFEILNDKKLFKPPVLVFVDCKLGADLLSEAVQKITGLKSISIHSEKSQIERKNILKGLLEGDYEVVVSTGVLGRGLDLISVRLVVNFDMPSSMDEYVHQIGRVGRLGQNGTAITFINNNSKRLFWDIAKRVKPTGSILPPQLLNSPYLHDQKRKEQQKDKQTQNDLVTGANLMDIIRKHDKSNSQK

USP34 C741 (Q70CQ2) = USP34 C741 (Q70CQ2) (Homo sapiens, UniProt Q70CQ2)
Sequence of USP34 C741 (Q70CQ2) (Q70CQ2 whole entry, the tested form may be a part): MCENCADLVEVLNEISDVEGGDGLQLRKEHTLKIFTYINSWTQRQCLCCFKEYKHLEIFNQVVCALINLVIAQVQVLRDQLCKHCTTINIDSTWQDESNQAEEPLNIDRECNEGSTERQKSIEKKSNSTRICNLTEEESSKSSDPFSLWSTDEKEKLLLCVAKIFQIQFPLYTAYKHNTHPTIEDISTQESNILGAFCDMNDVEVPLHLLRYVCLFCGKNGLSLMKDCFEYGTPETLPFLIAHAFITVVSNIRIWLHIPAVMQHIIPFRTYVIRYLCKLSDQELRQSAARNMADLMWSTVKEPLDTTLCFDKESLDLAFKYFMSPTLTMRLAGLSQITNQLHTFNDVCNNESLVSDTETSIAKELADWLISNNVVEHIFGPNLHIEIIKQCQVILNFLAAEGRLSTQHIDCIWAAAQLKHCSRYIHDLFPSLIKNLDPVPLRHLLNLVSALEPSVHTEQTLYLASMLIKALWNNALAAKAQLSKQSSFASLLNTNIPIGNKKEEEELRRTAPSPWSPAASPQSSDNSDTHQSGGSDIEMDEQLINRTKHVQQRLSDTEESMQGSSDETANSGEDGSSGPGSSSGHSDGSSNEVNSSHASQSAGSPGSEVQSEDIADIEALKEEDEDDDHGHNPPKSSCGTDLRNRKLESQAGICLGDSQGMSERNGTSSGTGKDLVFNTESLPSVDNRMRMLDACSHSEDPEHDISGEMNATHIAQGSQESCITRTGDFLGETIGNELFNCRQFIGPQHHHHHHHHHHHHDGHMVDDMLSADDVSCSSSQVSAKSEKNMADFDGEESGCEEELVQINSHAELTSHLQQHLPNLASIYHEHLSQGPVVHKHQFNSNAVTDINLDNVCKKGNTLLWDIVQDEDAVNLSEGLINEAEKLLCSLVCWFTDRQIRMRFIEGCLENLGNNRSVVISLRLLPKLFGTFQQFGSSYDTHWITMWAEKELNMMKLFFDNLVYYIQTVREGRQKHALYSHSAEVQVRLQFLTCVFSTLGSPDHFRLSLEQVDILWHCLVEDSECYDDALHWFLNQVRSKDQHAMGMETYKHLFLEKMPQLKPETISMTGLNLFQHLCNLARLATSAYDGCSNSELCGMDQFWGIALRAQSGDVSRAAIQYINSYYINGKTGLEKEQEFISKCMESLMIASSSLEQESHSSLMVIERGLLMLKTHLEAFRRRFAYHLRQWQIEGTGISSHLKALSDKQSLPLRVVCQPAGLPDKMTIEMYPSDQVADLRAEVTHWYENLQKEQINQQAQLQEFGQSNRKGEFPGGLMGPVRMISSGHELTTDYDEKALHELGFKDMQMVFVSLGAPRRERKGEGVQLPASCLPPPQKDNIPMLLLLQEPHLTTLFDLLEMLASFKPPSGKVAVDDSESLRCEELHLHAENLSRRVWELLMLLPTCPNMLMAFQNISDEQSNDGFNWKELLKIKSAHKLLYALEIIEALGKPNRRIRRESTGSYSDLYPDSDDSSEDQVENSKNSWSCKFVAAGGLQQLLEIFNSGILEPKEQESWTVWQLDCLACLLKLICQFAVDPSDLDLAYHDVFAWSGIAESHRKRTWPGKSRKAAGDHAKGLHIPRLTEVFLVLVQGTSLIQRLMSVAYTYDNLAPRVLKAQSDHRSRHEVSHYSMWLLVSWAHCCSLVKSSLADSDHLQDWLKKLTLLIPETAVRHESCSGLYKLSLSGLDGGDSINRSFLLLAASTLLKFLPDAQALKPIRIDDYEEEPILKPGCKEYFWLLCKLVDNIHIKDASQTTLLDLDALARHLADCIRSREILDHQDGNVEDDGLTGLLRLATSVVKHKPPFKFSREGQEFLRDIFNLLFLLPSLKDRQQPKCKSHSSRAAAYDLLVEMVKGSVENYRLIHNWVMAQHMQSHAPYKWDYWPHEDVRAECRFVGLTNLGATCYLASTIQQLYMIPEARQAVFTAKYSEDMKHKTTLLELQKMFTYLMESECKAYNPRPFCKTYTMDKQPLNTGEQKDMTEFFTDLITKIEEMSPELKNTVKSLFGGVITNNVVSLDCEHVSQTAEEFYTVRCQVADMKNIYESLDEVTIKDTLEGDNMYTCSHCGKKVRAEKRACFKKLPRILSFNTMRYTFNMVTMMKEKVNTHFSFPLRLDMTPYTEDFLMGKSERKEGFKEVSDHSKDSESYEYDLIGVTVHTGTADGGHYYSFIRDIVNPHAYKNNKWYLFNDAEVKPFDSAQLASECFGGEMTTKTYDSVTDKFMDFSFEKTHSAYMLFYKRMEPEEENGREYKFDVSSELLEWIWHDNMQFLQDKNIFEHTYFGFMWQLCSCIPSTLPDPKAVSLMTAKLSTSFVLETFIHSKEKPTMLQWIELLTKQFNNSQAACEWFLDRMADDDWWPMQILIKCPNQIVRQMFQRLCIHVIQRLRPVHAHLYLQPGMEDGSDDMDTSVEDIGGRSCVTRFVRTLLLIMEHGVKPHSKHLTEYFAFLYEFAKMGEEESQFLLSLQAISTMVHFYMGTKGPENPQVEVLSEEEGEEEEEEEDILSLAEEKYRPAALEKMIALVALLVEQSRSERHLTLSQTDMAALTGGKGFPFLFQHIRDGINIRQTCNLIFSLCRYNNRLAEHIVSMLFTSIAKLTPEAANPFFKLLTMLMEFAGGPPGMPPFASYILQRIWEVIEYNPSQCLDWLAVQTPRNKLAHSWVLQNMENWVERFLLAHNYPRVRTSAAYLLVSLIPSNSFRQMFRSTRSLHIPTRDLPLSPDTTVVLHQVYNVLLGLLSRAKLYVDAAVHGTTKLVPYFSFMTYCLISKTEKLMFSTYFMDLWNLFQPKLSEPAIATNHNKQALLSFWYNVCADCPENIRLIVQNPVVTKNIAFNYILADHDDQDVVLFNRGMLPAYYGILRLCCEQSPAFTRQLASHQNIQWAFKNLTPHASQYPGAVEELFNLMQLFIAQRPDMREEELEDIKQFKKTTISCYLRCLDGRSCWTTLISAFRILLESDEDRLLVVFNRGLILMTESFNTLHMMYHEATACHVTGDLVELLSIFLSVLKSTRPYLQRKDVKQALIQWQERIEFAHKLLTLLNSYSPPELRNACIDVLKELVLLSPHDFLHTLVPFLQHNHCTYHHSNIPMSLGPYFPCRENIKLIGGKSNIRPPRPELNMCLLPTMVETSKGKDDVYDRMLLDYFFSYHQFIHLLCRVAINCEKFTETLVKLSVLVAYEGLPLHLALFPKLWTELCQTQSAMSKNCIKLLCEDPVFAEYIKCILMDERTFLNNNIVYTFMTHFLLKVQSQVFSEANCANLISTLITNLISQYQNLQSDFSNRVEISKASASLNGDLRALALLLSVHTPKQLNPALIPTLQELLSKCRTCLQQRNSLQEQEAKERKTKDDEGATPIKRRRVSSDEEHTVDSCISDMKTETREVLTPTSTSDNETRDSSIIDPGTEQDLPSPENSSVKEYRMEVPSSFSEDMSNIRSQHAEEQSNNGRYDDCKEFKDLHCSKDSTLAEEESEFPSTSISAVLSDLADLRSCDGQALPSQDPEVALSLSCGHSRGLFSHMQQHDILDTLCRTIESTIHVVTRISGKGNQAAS

POU2F2 C346 (P09086) = target: T2, POU2F2 C346 (P09086) (Homo sapiens, UniProt P09086); conditions: for R value (DMSO/fragment) / isoTOP-ABPP ratio, P09086_C346: 500 μM
T2 sequence (P09086 1-479): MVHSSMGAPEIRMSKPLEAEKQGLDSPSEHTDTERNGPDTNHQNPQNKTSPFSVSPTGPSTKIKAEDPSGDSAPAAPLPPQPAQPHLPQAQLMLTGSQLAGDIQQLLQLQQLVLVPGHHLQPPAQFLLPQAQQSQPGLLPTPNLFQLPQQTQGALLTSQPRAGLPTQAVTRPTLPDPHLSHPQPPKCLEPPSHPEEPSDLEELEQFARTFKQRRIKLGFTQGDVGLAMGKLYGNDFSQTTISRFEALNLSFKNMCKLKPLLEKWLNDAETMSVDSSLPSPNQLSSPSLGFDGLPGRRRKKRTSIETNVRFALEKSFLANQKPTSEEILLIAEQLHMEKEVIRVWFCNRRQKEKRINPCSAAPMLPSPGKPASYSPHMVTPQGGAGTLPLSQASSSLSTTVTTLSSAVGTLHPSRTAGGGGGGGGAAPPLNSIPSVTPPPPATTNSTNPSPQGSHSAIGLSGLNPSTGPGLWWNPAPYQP

PELI1 C282 (Q96FA3) = target: T3, PELI1 C282 (Q96FA3) (Homo sapiens, UniProt Q96FA3); conditions: for isoTOP-ABPP ratio (reactivity profile), Q96FA3_C282: 500 μm in-vitro ramos; for isoTOP-ABPP reactivity ratio, Q96FA3_C282 / isoTOP-ABPP reactivity profile ratio, Q96FA3_C282: 500 μm, in-vitro_ramos
T3 sequence (Q96FA3 1-418): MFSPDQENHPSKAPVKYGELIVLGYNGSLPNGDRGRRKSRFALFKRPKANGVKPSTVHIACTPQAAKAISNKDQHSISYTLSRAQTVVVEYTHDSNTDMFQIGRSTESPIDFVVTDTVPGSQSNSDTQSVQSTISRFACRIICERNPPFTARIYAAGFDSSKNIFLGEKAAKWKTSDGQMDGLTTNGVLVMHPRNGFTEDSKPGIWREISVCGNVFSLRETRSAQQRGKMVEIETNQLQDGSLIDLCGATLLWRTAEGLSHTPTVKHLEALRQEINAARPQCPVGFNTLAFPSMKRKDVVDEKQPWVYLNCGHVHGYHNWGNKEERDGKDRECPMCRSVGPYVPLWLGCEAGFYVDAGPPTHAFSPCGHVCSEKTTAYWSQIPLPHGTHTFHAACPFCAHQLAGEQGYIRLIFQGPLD

COc1ccc2c(c1)CCCN2C(=O)CCl [compound 2]
R value (DMSO/fragment) (DDX59 C453 (Q5T1V6); in vitro, MDA-MB-231): 20.0 | R value (DMSO/fragment) (DDX59 C453 (Q5T1V6); invitro, ramos): 20.0

O=C(CCl)Nc1cc(C(F)(F)F)cc(C(F)(F)F)c1 [compound 3]
R value (DMSO/fragment) (DDX59 C453 (Q5T1V6); in vitro, MDA-MB-231): 20.0 | R value (DMSO/fragment) (USP34 C741 (Q70CQ2); 500 μM, invitro, ramos): 3.2 | R value (DMSO/fragment) (POU2F2 C346 (P09086); in vitro, MDA-MB-231): 1.7 | R value (DMSO/fragment) (POU2F2 C346 (P09086); invitro, ramos): 5.5

C=CC(=O)N(c1ccccc1)c1ccc(Br)cc1 [compound 5]
isoTOP-ABPP ratio, P09086_C346 (POU2F2 C346 (P09086); invitro, ramos): 4.6

O=C(CCl)N1CCN(S(=O)(=O)c2ccccc2F)CC1 [compound 10]
isoTOP-ABPP ratio, Q70CQ2_C741 (USP34 C741 (Q70CQ2); 500 μM, invitro, ramos): 0.9

Cn1cc(S(=O)(=O)N2CCOCC2)cc1C(=O)NC(=O)CCl [compound 11]
isoTOP-ABPP ratio, Q5T1V6_C453 (DDX59 C453 (Q5T1V6); invitro, 231): 20.0 | isoTOP-ABPP ratio, P09086_C346 (POU2F2 C346 (P09086); invitro, ramos): 1.7

O=C(CCl)NCCc1c[nH]c2ccccc12 [compound 13]
isoTOP-ABPP ratio, Q5T1V6_C453 (DDX59 C453 (Q5T1V6); invitro, ramos): 1.4 | isoTOP-ABPP ratio, Q70CQ2_C741 (USP34 C741 (Q70CQ2); 500 μM, invitro, 231): 0.8 | isoTOP-ABPP ratio, P09086_C346 (POU2F2 C346 (P09086); invitro, ramos): 0.6

C=CC(=O)N(Cc1cccnc1)c1ccc(Oc2ccccc2)c(C(F)(F)F)c1 [compound 15]
isoTOP-ABPP ratio (reactivity profile), P09086_C346 (POU2F2 C346 (P09086); 500 μm in-vitro ramos): 0.8

O=C(CCl)N1CCC(C(O)(c2ccccc2)c2ccccc2)CC1 [compound 20]
isoTOP-ABPP ratio (reactivity profile), Q70CQ2_C741 (USP34 C741 (Q70CQ2); 500 μm in-vitro ramos): 1.7 | isoTOP-ABPP ratio (reactivity profile), Q70CQ2_C741 (USP34 C741 (Q70CQ2); 500 μm in-vitro ramos_231): 2.8 | isoTOP-ABPP ratio (reactivity profile), P09086_C346 (POU2F2 C346 (P09086); 500 μm in-vitro ramos): 2.3

O=C(CCl)NC12CC3CC(CC(C3)C1)C2 [compound 21]
isoTOP-ABPP ratio (reactivity profile), Q70CQ2_C741 (USP34 C741 (Q70CQ2); 500 μm in-vitro ramos): 1.7 | isoTOP-ABPP ratio (reactivity profile), P09086_C346 (POU2F2 C346 (P09086); 500 μm in-vitro ramos_231): 0.9

N#C/C(=C\c1cc(C(F)(F)F)cc(C(F)(F)F)c1)C(N)=O [compound 23]
isoTOP-ABPP ratio (reactivity profile), P09086_C346 (POU2F2 C346 (P09086); 500 μm in-vitro ramos): 1.1

CC(Br)C(=O)Nc1cc(C(F)(F)F)cc(C(F)(F)F)c1 (stereo not drawn) [compound 24]
isoTOP-ABPP ratio (reactivity profile), Q5T1V6_C453 (DDX59 C453 (Q5T1V6); 500 μm in-vitro ramos): 1.7 | isoTOP-ABPP ratio (reactivity profile), P09086_C346 (POU2F2 C346 (P09086); 500 μm in-vitro ramos): 1.1

CC(Cl)C(=O)Nc1cc(C(F)(F)F)cc(C(F)(F)F)c1 (stereo not drawn) [compound 25]
isoTOP-ABPP ratio (reactivity profile), Q5T1V6_C453 (DDX59 C453 (Q5T1V6); 500 μm in-vitro ramos_231): 0.9 | isoTOP-ABPP ratio (reactivity profile), P09086_C346 (POU2F2 C346 (P09086); 500 μm in-vitro ramos_231): 0.7

O=C(/C=C/c1ccccc1)Nc1cc(C(F)(F)F)cc(C(F)(F)F)c1 [compound 26]
isoTOP-ABPP ratio (reactivity profile), Q96FA3_C282 (PELI1 C282 (Q96FA3)): 0.5

CC(C)CCOCCNC(=O)CCl [compound 27]
isoTOP-ABPP ratio (reactivity profile), Q5T1V6_C453 (DDX59 C453 (Q5T1V6); 500 μm in-vitro ramos_231): 1.0

COc1ccccc1OCCNC(=O)CCl [compound 28]
isoTOP-ABPP ratio (reactivity profile), Q96FA3_C282 (PELI1 C282 (Q96FA3)): 0.7

CCN(CC)c1ccc(S(N)(=O)=O)cc1NC(=O)CCl [compound 30]
isoTOP-ABPP reactivity ratio, Q96FA3_C282 (PELI1 C282 (Q96FA3)): 1.5

C=CC(=O)N(Cc1cccnc1)c1cc(C(F)(F)F)cc(C(F)(F)F)c1 [compound 31]
isoTOP-ABPP reactivity ratio, Q70CQ2_C741 (USP34 C741 (Q70CQ2); 500 μm, in-vitro_ramos_231): 4.2 | isoTOP-ABPP reactivity ratio, P09086_C346 (POU2F2 C346 (P09086); 500 μm, in-vitro_ramos): 0.6

C=CC(=O)N1CCC(c2noc3ccc(F)cc23)CC1 [compound 37]
isoTOP-ABPP reactivity ratio, Q70CQ2_C741 (USP34 C741 (Q70CQ2); 500 μm, in-vitro_ramos): 1.1

C=CC(=O)Nc1cc(F)c(N2CCN(C(=O)OC(C)(C)C)CC2)c(F)c1 [compound 38]
isoTOP-ABPP reactivity ratio, Q70CQ2_C741 (USP34 C741 (Q70CQ2); 500 μm, in-vitro_ramos): 4.1 | isoTOP-ABPP reactivity ratio, Q96FA3_C282 (PELI1 C282 (Q96FA3)): 7.0

N#CC(=Cc1ccc(-c2ccccc2Cl)o1)C(N)=O [compound 42]
isoTOP-ABPP reactivity profile ratio, Q5T1V6_C453 (DDX59 C453 (Q5T1V6); in-vitro_ramos): 1.0 | isoTOP-ABPP reactivity profile ratio, Q96FA3_C282 (PELI1 C282 (Q96FA3)): 1.2

COc1cc(NC(=O)CCl)cc(OC)c1 [compound 43]
isoTOP-ABPP reactivity profile ratio, Q5T1V6_C453 (DDX59 C453 (Q5T1V6); in-vitro_ramos_231): 20.0

O=C(CCl)Nc1cccc2ncccc12 [compound 51]
isoTOP-ABPP reactivity profile ratio, Q5T1V6_C453 (DDX59 C453 (Q5T1V6); in-vitro_ramos): 1.8 | isoTOP-ABPP reactivity profile ratio, Q70CQ2_C741 (USP34 C741 (Q70CQ2); 500 μm, in-vitro_ramos): 0.9

O=C(CCl)Nc1ccc(-c2ccccc2)cc1 [compound 52]
isoTOP-ABPP reactivity profile ratio, Q96FA3_C282 (PELI1 C282 (Q96FA3)): 20.0

Reference: patent US10670605B2, “Cysteine reactive probes and uses thereof” (The Scripps Research Institute, priority 2015, dated 2020)
